{
  "source": "patent US10968196B2",
  "about": "“Substituted β-lapachones for treating cancer” (University of Pittsburgh—Of the Commonwealth System of …, priority 2015, dated 2021)",
  "key": {"[1]": {"tested_on": "IMR90 lung fibroblast cells", "experiment": "Cell growth/death assay (4 h exposure, wash-out, 3 days drug free)", "assay_type": "cell-based, human", "conditions": "IMR90, 10 μM for 4 h, washed, 3 days drug free media (FIG. 3C)", "description": "(§1) (3A) A549 non-small cell lung cancer cells were treated with XJB-OMe, 3-hydroxy-β-lapachone (14), or XJB-lapachone (18) at indicated concentrations for 24 h. Cell viability was determined by a CellTiter-Blue assay. Data represents the mean±SEM. (3B) PEO1 ovarian cancer cells, MDA-MB-231 breast cancer cells, and 983B melanoma cells were treated with XJB-lapachone (18) at indicated concentrations for 24 h. Cell viability was determined by a CellTiter-Blue assay. Data represents the mean±SEM. (3C) Equal numbers of A549 and IMR90 lung fibroblast cells were treated with 10 μM XJB-lapachone (18) for 4 h. XJB-lapachone was then washed away and cells were incubated in drug free media for 3 days. Cell viability was determined by a CellTiter-Blue assay. (3D) A549 cells were treated with XJB-OMe, 3-hydroxy-β-lapachone (14), or XJB-lapachone (18) at 6 μM concentrations for 20 h. […] Apoptotic and necrotic cell death were determined by Annexin V and PI staining. […]\nCell viability and apoptosis assays: Cell viability was determined using a CellTiter-Blue Cell Viability Assay (Promega, Madison, Wis.). The survival fractions were calculated after setting untreated control cells at 100%. An FITC Annexin V Apoptosis Detection Kit (BD PharMingen, San Diego, Calif.) was used to quantify apoptotic cells and necrotic cells, according to the manufacturer's instructions. […]"}, "A549 cells [2]": {"tested_on": "A549 cells", "experiment": "Annexin V and PI staining (apoptotic and necrotic cell death)", "assay_type": "cell-based", "conditions": "A549, 6 μM, 20 h, compared to unconjugated 3-hydroxy-β-lapachone (FIG. 3E)", "description": "as §1\nCell viability and apoptosis assays: Cell viability was determined using a CellTiter-Blue Cell Viability Assay (Promega, Madison, Wis.). The survival fractions were calculated after setting untreated control cells at 100%. An FITC Annexin V Apoptosis Detection Kit (BD PharMingen, San Diego, Calif.) was used to quantify apoptotic cells and necrotic cells, according to the manufacturer's instructions."}, "A549 cells [3]": {"tested_on": "A549 cells", "experiment": "ROS generation by DCF-DA and MitoSox, flow cytometry", "assay_type": "cell-based", "conditions": "for ROS generation (DCF) / mitochondrial ROS generation (MitoSox): A549, 6 μM, 16 h, flow cytometry (FIG. 4A)", "description": "(§2) (4A) A549 cells were treated with XJB-OMe, 3-hydroxy-β-lapachone (14), or XJB-lapachone (18) at 6 μM for 16 h. The generation of ROS was determined by staining cells with MitoSox and DCFHDA. The fluorescence intensity was measured by flow cytometry. Data represents the mean±S.D. of triplicates. (4B) A549 cells were treated as described in A, and the oxygen consumption rate was determined by a Seahorse extracellular flux analyzer. […] (4C) A549 cells were treated as described in A, and mitochondria morphology was examined by electron microscopy. Representative images are shown. (4D) A549 cells were treated as described above. The expression of the autophagy marker LC3 was examined by western blot. β-actin was used as a loading control. Representative images are shown.\nDetermination of ROS generation: To measure intracellular generation of ROS, cells were incubated with 5 μM DCF-DA (Sigma) for 20 min at 37° C. after drug exposure. To measure mitochondrial generated ROS, cells were incubated with 5 μM of MitoSox (Invitrogen) for 20 min at 37° C. After wash with PBS, cells were trypsinized and suspended in HBSS containing 1% BSA. The fluorescence intensity of DCF and MitoSox were analyzed using an Accuri C6 flow cytometer (BD Accuri Cytometers, Ann Arbor, Mich.).\nA549 non-small cell lung cancer cells (high NQO1) and MDA-MB-231 triple negative breast cancer cells (NQO1 deficient) were treated as indicated in FIG. 6. Mitochondrial ROS generation was determined by MitoSox followed by flow cytometry, essentially as described above."}, "A549 cells [4]": {"tested_on": "A549 cells", "experiment": "Oxygen consumption rate, Seahorse extracellular flux analysis", "assay_type": "cell-based", "conditions": "A549, 6 μM, 16 h, Seahorse (FIG. 4B)", "description": "as §2\nExtracellular flux (XF) analysis: Oxygen consumption rate (OCR) was measured using a Seahorse XF96 Extracellular Flux Analyzer (Seahorse Bioscience, North Billerica, Mass.), as previously described (Qian W, et al., Alterations in bioenergetics due to changes in mitochondrial DNA copy number. Methods 2010 51:452-457). Briefly, A549 cells were plated in a 6-well plate and treated with compounds for 16 h. After treatment, cells were trypsinized, counted, and plated at 40,000 cells per well in a XF96 microplate using Cell-Tak cell adhesive. OCR measurements were then performed using a XF96 analyzer."}, "LC3": {"tested_on": "LC3", "experiment": "Western blot of autophagy marker LC3", "assay_type": "cell-based", "conditions": "A549, western blot (FIG. 4D)", "description": "as §2\nWestern blot analysis: Western blot was performed. Primary antibody LC3 was obtained from Novus (Littleton, Colo.) and β-actin was purchased from Sigma-Aldrich (St. Louis, Mo.)."}, "[5]": {"tested_on": "A549 non-small cell lung cancer cells", "experiment": "Colony forming capacity (crystal violet) 10 days after drug treatment", "assay_type": "cell-based", "description": "Drug efficacy was determined by colony forming capacity using crystal violet 10 days after drug treatment.\nA549 non-small cell lung cancer cells were treated with XJB-lapachone alone or combination with cisplatin or etoposide for 4 h at concentrations indicated in FIG. 10. Drug efficacy was determined by colony forming capacity 10 days after drug treatment.\nA549 cells were treated with XJB-lapachone for 4 h. XJB-lapachone was then washed away before IR exposure (gamma-irradiation with a Shepherd Mark I Model 68 [^137Cs] irradiator) at 0, 1, 2, 4, and 6 Gy (grays). The number of colonies was counted 10 days after IR exposure (FIG. 11)."}, "DNA damage signaling": {"tested_on": "DNA damage signaling", "experiment": "Western blot of DNA damage signaling activation", "assay_type": "cell-based", "conditions": "A549, western blot after treatment (FIG. 9)", "description": "Western blot was performed […] after treatment to examine the activation of DNA damage signaling. Antibodies used in the Western Blot were β-actin (AC-15) and ATM (MAT3-4G10/8) (from Sigma); Chk1 (2G1D5), phospho-Chk2 (Thr68) (C13C1), Chk2 (1C12) (from Cell Signaling Technology); phospho-Chk1 (Ser317) (from R&D systems); and phospho-ATM (S1981) (from Epitomics)."}},
  "data": [
    {"smiles": "CC(C)C[C@@H](/C=C/[C@H](Cc1ccccc1)C(=O)N1CCC[C@H]1C(=O)N[C@H](C(=O)N[C@@H](CCCNC(=O)OCc1ccccc1)C(=O)NCCC(=O)OC1CC2=C(OC1(C)C)c1ccccc1C(=O)C2=O)C(C)C)NC(=O)OC(C)(C)C", "note": "(stereo partly drawn) [XJB-lapachone, 2,2-Dimethyl-5,6-dioxo-3,4,5,6-tetrahydro-2H-benzo[h]chromen-3-yl 3-((S)-2-((S)-2-((S)-1-((2S,5S,E)-2-benzyl-5-((tert-butoxycarbonyl)amino)-7-methyloct-3-enoyl)pyrrolidine-2-carboxamido)-3-methylbutanamido)-5-(((benzyloxy)carbonyl)amino)pentanamido) propanoate]", "values": [
      {"measurement": "cell viability after four-hour exposure (toxic effect on non-transformed cells)", "setting": "[1]", "result": "toxic effect was less prominent"},
      {"measurement": "annexin V positive cells (apoptosis)", "setting": "A549 cells [2]", "result": "more annexin V positive cells were induced"},
      {"measurement": "mitochondrial ROS generation (MitoSox), dose and time dependence", "setting": "A549 cells [3]; A549 (high NQO1) (FIG. 6)", "result": "Induces Mitochondrial ROS Generation in a Dose and Time Dependent Manner"},
      {"measurement": "ROS generation (DCF)", "setting": "A549 cells [3]", "result": "dramatic increase of ROS generation"},
      {"measurement": "mitochondrial ROS generation (MitoSox)", "setting": "A549 cells [3]", "result": "dramatic increase of ROS generation"},
      {"measurement": "ROS generation (DCF)", "setting": "A549 cells [3]; listed as 18", "result": "stronger than unconjugated 3-hydroxy-β-lapachone"},
      {"measurement": "mitochondrial ROS generation (MitoSox)", "setting": "A549 cells [3]; listed as 18", "result": "stronger than unconjugated 3-hydroxy-β-lapachone"},
      {"measurement": "inhibition of mitochondrial respiration (oxygen consumption) by oligomycin after treatment", "setting": "A549 cells [4]", "result": "can no longer be inhibited by oligomycin"},
      {"measurement": "increase in LC3-II immunoblot signal", "setting": "LC3", "result": "increase in an LC3-II immunoblot signal was observed"},
      {"measurement": "colony forming capacity in combination with cisplatin or etoposide", "setting": "[5]; A549, 4 h, alone or combination with cisplatin or etoposide, 10 days (FIG. 10)", "result": "enhances the effect of DNA-damaging anticancer agents"},
      {"measurement": "treatment efficacy by colony forming capacity", "setting": "[5]; A549, 4 h treatment, colonies 10 days after (FIG. 5)", "result": "Higher Treatment Efficacy as Compared to Unconjugated Beta-Lapachone"},
      {"measurement": "number of colonies in combination with ionizing radiation", "setting": "[5]; A549, 4 h treatment, washed, IR 0-6 Gy, colonies counted 10 days after (FIG. 11)", "result": "Synergistic Effect"},
      {"measurement": "activation of DNA damage signaling (DNA damage)", "setting": "DNA damage signaling", "result": "induces DNA damage"}
    ]}
  ]
}
